Measurements from ChEMBL document CHEMBL4229407, “Optimization and in vivo evaluation of pyrazolopyridines as a potent and selective PI3Kδ inhibitor” (Bioorg Med Chem, 2018).
One block for each molecule: values may come before it.

Assays:
[1] = target: PI3-kinase p110-delta/p85-alpha (Homo sapiens, UniProt O00329); assay: Inhibition of recombinant human full length N-terminal His6-tagged PI3K p110delta/p85alpha expressed in baculovirus infected Sf21 cells using PIP2 as substrate after 35 to 40 mins by HTRF assay
Chain of PI3-kinase p110-delta/p85-alpha (P27986 whole entry): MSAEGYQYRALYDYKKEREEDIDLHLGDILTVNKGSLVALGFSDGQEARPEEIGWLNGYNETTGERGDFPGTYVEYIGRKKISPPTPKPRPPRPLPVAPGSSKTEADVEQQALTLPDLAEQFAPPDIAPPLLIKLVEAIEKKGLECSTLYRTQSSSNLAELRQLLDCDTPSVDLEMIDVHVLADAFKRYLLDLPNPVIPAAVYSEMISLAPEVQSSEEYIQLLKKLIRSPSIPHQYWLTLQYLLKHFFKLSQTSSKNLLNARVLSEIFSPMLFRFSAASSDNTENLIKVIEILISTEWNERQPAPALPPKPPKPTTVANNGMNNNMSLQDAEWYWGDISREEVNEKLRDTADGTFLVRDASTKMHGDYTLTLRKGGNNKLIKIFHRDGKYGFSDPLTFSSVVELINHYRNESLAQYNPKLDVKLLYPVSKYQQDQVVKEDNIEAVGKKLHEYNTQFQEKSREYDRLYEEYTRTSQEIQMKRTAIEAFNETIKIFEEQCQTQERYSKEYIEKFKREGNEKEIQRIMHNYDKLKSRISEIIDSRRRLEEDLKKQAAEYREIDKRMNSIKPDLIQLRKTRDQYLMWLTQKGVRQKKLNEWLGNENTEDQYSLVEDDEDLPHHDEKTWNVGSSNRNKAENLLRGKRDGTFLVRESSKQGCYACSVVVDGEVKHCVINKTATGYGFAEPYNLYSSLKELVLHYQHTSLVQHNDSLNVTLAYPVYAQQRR
Chain of PI3-kinase p110-delta/p85-alpha (O00329 whole entry): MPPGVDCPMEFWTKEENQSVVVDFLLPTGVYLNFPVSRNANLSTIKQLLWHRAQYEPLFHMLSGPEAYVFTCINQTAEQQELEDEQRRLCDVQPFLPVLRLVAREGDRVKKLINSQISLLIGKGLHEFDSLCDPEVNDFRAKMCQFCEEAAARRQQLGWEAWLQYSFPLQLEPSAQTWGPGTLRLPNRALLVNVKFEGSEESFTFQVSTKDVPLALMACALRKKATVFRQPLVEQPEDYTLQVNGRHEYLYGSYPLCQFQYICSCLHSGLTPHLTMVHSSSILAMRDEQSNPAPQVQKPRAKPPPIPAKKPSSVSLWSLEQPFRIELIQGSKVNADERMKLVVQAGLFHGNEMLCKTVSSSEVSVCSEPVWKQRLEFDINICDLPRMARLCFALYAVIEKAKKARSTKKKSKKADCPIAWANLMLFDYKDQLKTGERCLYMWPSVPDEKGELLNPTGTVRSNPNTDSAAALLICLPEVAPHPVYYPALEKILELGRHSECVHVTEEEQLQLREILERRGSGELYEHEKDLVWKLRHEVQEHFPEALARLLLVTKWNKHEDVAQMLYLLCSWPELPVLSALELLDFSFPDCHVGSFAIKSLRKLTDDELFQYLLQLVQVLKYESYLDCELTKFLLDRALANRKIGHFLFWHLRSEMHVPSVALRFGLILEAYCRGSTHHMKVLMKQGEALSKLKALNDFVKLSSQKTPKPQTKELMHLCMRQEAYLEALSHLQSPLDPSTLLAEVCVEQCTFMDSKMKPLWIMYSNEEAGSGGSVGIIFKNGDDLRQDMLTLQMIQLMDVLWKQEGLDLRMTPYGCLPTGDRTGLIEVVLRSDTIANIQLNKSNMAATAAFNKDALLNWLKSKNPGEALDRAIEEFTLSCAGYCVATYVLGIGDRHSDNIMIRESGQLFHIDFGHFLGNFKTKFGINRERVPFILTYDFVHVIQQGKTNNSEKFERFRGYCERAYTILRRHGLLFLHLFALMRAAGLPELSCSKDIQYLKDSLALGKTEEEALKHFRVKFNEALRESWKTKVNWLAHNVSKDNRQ

Homo sapiens [2] = organism: Homo sapiens; assay: Selectivity ratio of IC50 for recombinant human full length N-terminal His6-tagged PI3K p110alpha/p85alpha expressed in baculovirus infected Sf21 cells to IC50 for recombinant human full length N-terminal His6-tagged PI3K p110delta/p85alpha expressed in baculovirus infected Sf21 cells
Homo sapiens [3] = organism: Homo sapiens; assay: Selectivity ratio of IC50 for recombinant human full length N-terminal His6-tagged PI3K p110beta/p85alpha expressed in baculovirus infected Sf21 cells to IC50 for recombinant human full length N-terminal His6-tagged PI3K p110delta/p85alpha expressed in baculovirus infected Sf21 cells
Homo sapiens [4] = organism: Homo sapiens; assay: Selectivity ratio of IC50 for recombinant human full length N-terminal His6-tagged PI3K p120gamma expressed in baculovirus infected Sf21 cells to IC50 for recombinant human full length N-terminal His6-tagged PI3K p110delta/p85alpha expressed in baculovirus infected Sf21 cells
[5] = Intrinsic clearance in CD-1 mouse liver microsomes at 0.2 uM up to 45 mins in presence of NADPH by LC-MS/MS analysis; type: ADME, microsome; settings: read-out: CLH
[6] = Metabolic stability in CD-1 mouse liver microsomes at 0.2 uM up to 45 mins in presence of NADPH by LC-MS/MS analysis; type: ADME, microsome; settings: 0.75 h
Mus musculus [7] = assay: In vivo inhibition of PI3Kdelta in Balb/c mouse assessed as reduction in trinitrophenylated aminoethylcarboxymethyl-Ficoll-induced antibody production in plasma at 2 mg/kg, po administered twice daily measured on day 4 by ELISA relative to control; type: functional; settings: 96 h
Mus musculus [8] = assay: In vivo inhibition of PI3Kdelta in Balb/c mouse assessed as reduction in trinitrophenylated aminoethylcarboxymethyl-Ficoll-induced antibody production in plasma at 1 mg/kg, po administered twice daily measured on day 4 by ELISA relative to control; type: functional; settings: 96 h
[9] = Aqueous solubility in pH 6.8 solution at 130 uM after 20 hrs by liquid chromatography method; type: physicochemical; settings: aqueous pH 6.8 solution
[10] = Permeability of the compound at 50 uM after 2 hrs by HPLC based PAMPA; type: ADME; settings: read-out: permeability
Cytochrome P450 1A2 = target: T1, Cytochrome P450 1A2 (Homo sapiens, UniProt P05177); assay: Inhibition of CYP1A2 in human liver microsomes at 5 uM using phenacetin as substrate after 20 mins in presence of NADPH by LC-MS/MS analysis; type: ADME
T1 sequence (P05177 whole entry): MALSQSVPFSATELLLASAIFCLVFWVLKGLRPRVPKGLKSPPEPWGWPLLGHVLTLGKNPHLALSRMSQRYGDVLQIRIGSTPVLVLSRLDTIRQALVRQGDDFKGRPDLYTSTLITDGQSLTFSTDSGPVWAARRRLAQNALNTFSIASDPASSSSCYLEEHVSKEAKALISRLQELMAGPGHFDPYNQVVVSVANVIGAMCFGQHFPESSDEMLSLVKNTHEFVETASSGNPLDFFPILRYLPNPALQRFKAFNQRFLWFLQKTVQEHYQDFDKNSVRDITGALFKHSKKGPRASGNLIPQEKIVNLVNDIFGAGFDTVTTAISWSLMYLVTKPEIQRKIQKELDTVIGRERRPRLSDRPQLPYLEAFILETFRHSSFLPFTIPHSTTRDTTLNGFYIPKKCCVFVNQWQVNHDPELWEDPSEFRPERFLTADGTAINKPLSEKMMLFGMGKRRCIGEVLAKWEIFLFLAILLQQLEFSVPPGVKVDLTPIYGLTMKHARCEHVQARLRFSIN

Cytochrome P450 2C8 = target: T2, Cytochrome P450 2C8 (Homo sapiens, UniProt P10632); assay: Inhibition of CYP2C8 in human liver microsomes at 5 uM using amodiaquine as substrate after 20 mins in presence of NADPH by LC-MS/MS analysis; type: ADME
T2 sequence (P10632 whole entry): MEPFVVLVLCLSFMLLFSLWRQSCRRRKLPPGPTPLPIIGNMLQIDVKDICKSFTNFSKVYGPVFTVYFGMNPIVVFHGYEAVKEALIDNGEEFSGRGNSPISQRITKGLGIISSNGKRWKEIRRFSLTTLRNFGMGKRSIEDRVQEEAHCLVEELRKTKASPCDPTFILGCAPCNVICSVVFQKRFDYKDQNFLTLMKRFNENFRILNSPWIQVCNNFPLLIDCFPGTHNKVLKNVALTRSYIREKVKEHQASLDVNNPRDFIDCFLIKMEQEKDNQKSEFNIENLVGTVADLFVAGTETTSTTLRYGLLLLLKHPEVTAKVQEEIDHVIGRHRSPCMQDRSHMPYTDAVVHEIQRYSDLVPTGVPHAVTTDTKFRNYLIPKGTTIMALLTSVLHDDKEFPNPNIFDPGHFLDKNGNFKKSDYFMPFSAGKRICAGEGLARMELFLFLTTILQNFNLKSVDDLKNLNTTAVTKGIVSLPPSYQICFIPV

Cytochrome P450 2C9 = Cytochrome P450 2C9 (Homo sapiens, UniProt P11712); assay: Inhibition of CYP2C9 in human liver microsomes at 5 uM using diclofenac as substrate after 20 mins in presence of NADPH by LC-MS/MS analysis; type: ADME
Chain of Cytochrome P450 2C9 (P11712 whole entry): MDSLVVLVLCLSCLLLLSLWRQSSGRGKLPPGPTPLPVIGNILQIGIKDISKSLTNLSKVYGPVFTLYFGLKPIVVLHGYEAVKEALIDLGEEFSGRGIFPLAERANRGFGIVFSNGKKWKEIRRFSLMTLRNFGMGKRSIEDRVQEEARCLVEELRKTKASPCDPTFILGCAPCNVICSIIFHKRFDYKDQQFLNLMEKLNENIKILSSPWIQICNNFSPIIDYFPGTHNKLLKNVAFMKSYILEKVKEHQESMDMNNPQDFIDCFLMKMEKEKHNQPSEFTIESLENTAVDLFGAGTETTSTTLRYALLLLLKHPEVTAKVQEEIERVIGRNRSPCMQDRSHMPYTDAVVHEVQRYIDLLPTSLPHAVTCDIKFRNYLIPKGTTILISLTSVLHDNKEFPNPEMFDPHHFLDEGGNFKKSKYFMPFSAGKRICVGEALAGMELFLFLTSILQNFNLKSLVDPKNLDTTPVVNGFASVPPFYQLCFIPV

Cytochrome P450 2C19 = Cytochrome P450 2C19 (Homo sapiens, UniProt P33261); assay: Inhibition of CYP2C19 in human liver microsomes at 5 uM using S-mephenytoin as substrate after 20 mins in presence of NADPH by LC-MS/MS analysis; type: ADME
Chain of Cytochrome P450 2C19 (P33261 whole entry): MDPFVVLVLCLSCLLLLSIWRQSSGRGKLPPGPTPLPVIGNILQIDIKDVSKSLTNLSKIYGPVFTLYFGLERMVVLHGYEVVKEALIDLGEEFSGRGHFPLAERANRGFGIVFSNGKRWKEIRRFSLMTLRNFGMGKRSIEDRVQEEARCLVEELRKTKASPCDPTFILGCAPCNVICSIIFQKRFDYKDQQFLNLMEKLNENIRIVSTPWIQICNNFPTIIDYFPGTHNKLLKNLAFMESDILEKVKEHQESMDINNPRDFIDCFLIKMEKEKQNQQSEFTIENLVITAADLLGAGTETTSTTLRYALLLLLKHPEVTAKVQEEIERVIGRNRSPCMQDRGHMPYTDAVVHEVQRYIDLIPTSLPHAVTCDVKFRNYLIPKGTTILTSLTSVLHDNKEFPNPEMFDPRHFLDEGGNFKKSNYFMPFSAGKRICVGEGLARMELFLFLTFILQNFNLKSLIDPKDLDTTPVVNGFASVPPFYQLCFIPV

Cytochrome P450 2D6 = Cytochrome P450 2D6 (Homo sapiens, UniProt P10635); assay: Inhibition of CYP2D6 in human liver microsomes at 5 uM using dextromethorphan as substrate after 20 mins in presence of NADPH by LC-MS/MS analysis; type: ADME
Chain of Cytochrome P450 2D6 (P10635 whole entry): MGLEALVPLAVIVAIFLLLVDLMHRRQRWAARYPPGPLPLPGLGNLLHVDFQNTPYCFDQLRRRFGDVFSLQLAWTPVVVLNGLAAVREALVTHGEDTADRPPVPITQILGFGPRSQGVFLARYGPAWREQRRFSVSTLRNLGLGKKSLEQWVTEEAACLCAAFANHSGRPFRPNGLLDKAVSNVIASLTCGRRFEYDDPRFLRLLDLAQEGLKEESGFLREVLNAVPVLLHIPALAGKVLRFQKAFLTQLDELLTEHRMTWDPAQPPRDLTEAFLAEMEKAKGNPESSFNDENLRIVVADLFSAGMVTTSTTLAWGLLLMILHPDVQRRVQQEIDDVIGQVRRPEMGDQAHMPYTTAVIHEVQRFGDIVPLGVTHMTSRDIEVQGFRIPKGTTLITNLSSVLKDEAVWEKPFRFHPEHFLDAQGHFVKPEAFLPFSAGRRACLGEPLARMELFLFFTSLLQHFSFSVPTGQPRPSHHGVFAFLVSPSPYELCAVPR

Cytochrome P450 3A4 = Cytochrome P450 3A4 (Homo sapiens, UniProt P08684); assay: Inhibition of CYP3A4 in human liver microsomes at 5 uM using midazolam as substrate after 20 mins in presence of NADPH by LC-MS/MS analysis; type: ADME
Chain of Cytochrome P450 3A4 (P08684 whole entry): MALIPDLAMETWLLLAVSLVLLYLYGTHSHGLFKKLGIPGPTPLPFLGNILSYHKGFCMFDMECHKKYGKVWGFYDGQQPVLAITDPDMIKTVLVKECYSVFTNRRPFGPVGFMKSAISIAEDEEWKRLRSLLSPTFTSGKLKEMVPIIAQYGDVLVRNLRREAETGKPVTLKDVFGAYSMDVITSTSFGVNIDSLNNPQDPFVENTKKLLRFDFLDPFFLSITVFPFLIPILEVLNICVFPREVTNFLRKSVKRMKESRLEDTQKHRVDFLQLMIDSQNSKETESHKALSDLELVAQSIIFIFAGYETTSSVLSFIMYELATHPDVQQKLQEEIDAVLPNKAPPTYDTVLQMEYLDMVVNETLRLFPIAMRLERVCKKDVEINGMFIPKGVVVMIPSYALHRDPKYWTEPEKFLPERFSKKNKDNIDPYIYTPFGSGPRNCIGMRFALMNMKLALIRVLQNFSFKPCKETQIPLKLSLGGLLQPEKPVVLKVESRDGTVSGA

[11] = Total clearance in Balb/c mouse at 1 mg/kg, iv or 3 mg/kg, po by LC-MS/MS analysis; type: ADME, organism-based; settings: in vivo
[12] = Volume of distribution at steady state in Balb/c mouse at 1 mg/kg, iv or 3 mg/kg, po by LC-MS/MS analysis; type: ADME, organism-based; settings: in vivo, read-out: Vdss
[13] = Half life in Balb/c mouse at 1 mg/kg, iv or 3 mg/kg, po by LC-MS/MS analysis; type: ADME, organism-based; settings: in vivo
[14] = Cmax in Balb/c mouse at 1 mg/kg, iv or 3 mg/kg, po by LC-MS/MS analysis; type: ADME, organism-based; settings: in vivo
[15] = Tmax in Balb/c mouse at 1 mg/kg, iv or 3 mg/kg, po by LC-MS/MS analysis; type: ADME, organism-based; settings: in vivo
[16] = AUC (0 to 24 hrs) in Balb/c mouse at 1 mg/kg, iv or 3 mg/kg, po by LC-MS/MS analysis; type: ADME, organism-based; settings: in vivo
[17] = Fraction unbound in mouse plasma at 2 uM after 6 hrs by LC-MS/MS based equilibrium dialysis method; type: ADME, cell-free
[18] = Oral bioavailability in Balb/c mouse at 3 mg/kg by LC-MS/MS analysis; type: ADME, organism-based; settings: in vivo
Mus musculus [19] = assay: In vivo inhibition of PI3Kdelta in Balb/c mouse assessed as reduction in trinitrophenylated aminoethylcarboxymethyl-Ficoll-induced antibody production in plasma administered orally twice daily measured on day 4 by ELISA; type: functional, organism-based
Mus musculus [20] = assay: In vivo inhibition of PI3Kdelta in Balb/c mouse assessed as reduction in trinitrophenylated aminoethylcarboxymethyl-Ficoll-induced antibody production in plasma at 0.5 mg/kg, po administered twice daily measured on day 4 by ELISA relative to control; type: functional; settings: 96 h

Compound: COc1ncc(-c2cc(O[C@@H]3CCN(C(=O)C4CCOCC4)C3)c3cnn(C)c3n2)cc1NS(C)(=O)=O
Stability [6]: Stable
inhibition in vivo at 2 mg/kg (Mus musculus [7]): 32%
inhibition in vivo at 1 mg/kg (Mus musculus [8]): -2%

Compound: COc1ncc(-c2cc(OC[C@@H]3CCCN(C(=O)c4cccnn4)C3)c3cnn(C)c3n2)cc1NS(C)(=O)=O
IC50 [1]: 7.3 nM
Ratio IC50 (Homo sapiens [2]): 35

Compound: COc1ncc(-c2cc(OC[C@H]3CCCN(C(=O)C4CCOCC4)C3)c3cnn(C)c3n2)cc1NS(C)(=O)=O
IC50 [1]: 30 nM
Ratio IC50 (Homo sapiens [2]): 6.6

Compound: COc1ncc(-c2cc(O[C@H]3CC[C@H](NC(=O)C4CCOCC4)CC3)c3cnn(C)c3n2)cc1NS(C)(=O)=O
IC50 [1]: 150 nM

Compound: COc1ncc(-c2cc(OC[C@@H]3CCCN(C(=O)CC4CCOC4)C3)c3cnn(C)c3n2)cc1NS(C)(=O)=O (stereo partly specified)
IC50 [1]: 4.8 nM
Ratio IC50 (Homo sapiens [2]): 210

Compound: COc1ncc(-c2cc(OC[C@@H]3CCCN(C(=O)C4CCN(CCC(F)(F)F)CC4)C3)c3cnn(C)c3n2)cc1NS(C)(=O)=O
IC50 [1]: 41 nM
Ratio IC50 (Homo sapiens [2]): 38

Compound: COc1ncc(-c2cc(O[C@@H]3CCN(Cc4c(C)nn(C)c4C)C3)c3cnn(C)c3n2)cc1NS(C)(=O)=O
CLint scaled at 0.2 µM [5]: 620 mL/min/kg
inhibition in vivo at 2 mg/kg (Mus musculus [7]): 37%

Compound: COc1ncc(-c2cc(OC3CN(C(=O)C4CCOCC4)C3)c3cnn(C)c3n2)cc1NS(C)(=O)=O
IC50 [1]: 63 nM
Ratio IC50 (Homo sapiens [2]): 3.7

More lines, main results first:

IC50 [1]: 0.79 nM
CLint scaled at 0.2 µM [5]: 340 mL/min/kg
Compound: COc1ncc(-c2cc(OC[C@@H]3CCCN(CC4CCOCC4)C3)c3cnn(C)c3n2)cc1NS(C)(=O)=O
Ratio IC50 (Homo sapiens [2]): 87
Ratio IC50 (Homo sapiens [3]): 890
Ratio IC50 (Homo sapiens [4]): 3200

IC50 [1]: 1.8 nM
CLint scaled at 0.2 µM [5]: 910 mL/min/kg
Compound: COc1ncc(-c2cc(OC[C@@H]3CCCN(CC4(C)COC4)C3)c3cnn(C)c3n2)cc1NS(C)(=O)=O
Ratio IC50 (Homo sapiens [2]): 570

IC50 [1]: 3.9 nM
Compound: COc1ncc(-c2cc(OC[C@@H]3CCCN(C(=O)C4CCOCC4)C3)c3cnn(C)c3n2)cc1NS(C)(=O)=O
Ratio IC50 (Homo sapiens [2]): 39
Ratio IC50 (Homo sapiens [3]): 1300
Ratio IC50 (Homo sapiens [4]): 490

IC50 [1]: 4.6 nM
Compound: COc1ncc(-c2cc(OC[C@@H]3CCCN(C(=O)C4CCN(C(C)=O)CC4)C3)c3cnn(C)c3n2)cc1NS(C)(=O)=O
Ratio IC50 (Homo sapiens [2]): 260

IC50 [1]: 1.4 nM
CLint scaled at 0.2 µM [5]: > 1000 mL/min/kg
Compound: COc1ncc(-c2cc(OC[C@@H]3CCCN(Cc4c(C)nn(C)c4C)C3)c3cnn(C)c3n2)cc1NS(C)(=O)=O
Ratio IC50 (Homo sapiens [2]): 780

solubility at 20 h, 130 µM [9]: ≥ 100 µM
IC50 [1]: 1.3 nM
CLint scaled at 0.2 µM [5]: 88 mL/min/kg
Papp at 2 h, 50 µM [10]: 22 ×10⁻⁶ cm/s
inhibition (INH) (Cytochrome P450 1A2): Not Active
inhibition (INH) (Cytochrome P450 2C8): Not Active
inhibition (INH) (Cytochrome P450 2C9): Not Active
inhibition (INH) (Cytochrome P450 2C19): Not Active
inhibition (INH) (Cytochrome P450 2D6): Not Active
inhibition (INH) (Cytochrome P450 3A4): Not Active
clearance [11]: 25.5 mL/min/kg
Vd [12]: 5.64 L/kg
half-life [13]: 2.63 h
Cmax [14]: 230 ng/mL
Tmax [15]: 0.5 h
AUC(0-t) [16]: 1420 ng·h/mL
fraction unbound at 6 h, 2 µM [17]: 0.23
bioavailability [18]: 73%
Compound: COc1ncc(-c2cc(OC[C@@H]3CCCN(CCC4CCOCC4)C3)c3cnn(C)c3n2)cc1NS(C)(=O)=O
Ratio IC50 (Homo sapiens [2]): 430
Ratio IC50 (Homo sapiens [3]): 660
Ratio IC50 (Homo sapiens [4]): 3600
inhibition (Mus musculus [19]): Dose-dependent effect
inhibition in vivo at 2 mg/kg (Mus musculus [7]): 83%
inhibition in vivo at 1 mg/kg (Mus musculus [8]): 68%
inhibition in vivo at 0.5 mg/kg (Mus musculus [20]): 56%

IC50 [1]: 3.2 nM
CLint scaled at 0.2 µM [5]: > 1000 mL/min/kg
Compound: COc1ncc(-c2cc(OC[C@@H]3CCCN(Cc4cn(C)nc4C)C3)c3cnn(C)c3n2)cc1NS(C)(=O)=O
Ratio IC50 (Homo sapiens [2]): 730
